# Test results: paper PMC3115942 (PLoS ONE, 2011)
# Experiments:
# Experiment in all cases: Millipore kinaseprofiler diversity array
# Assay type in all cases: biochemical
# Details in all cases: 10 µM MS-0022
# ASK1(h) = molecular target: T1, ASK1(h) (Homo sapiens, UniProt Q99683)
# T1 construct: purchased Millipore (Upstate) KinaseProfiler
# Experimental: (§1) Table 4 Kinase activity in presence of 10 µM MS-0022 in a kinaseprofiler diversity array. | column: Activity %
# Abl(h) = molecular target: T2, Abl(h) (Homo sapiens, UniProt P00519)
# T2 construct: purchased Millipore (Upstate) KinaseProfiler
# Experimental: as §1
# CDK1/cyclinB(h) = molecular target: T3, CDK1/cyclinB(h) (Homo sapiens, UniProt P06493)
# T3 construct: purchased Millipore (Upstate) KinaseProfiler
# Experimental: as §1
# CDK2/cyclinA(h) = molecular target: T4, CDK2/cyclinA(h) (Homo sapiens, UniProt P24941)
# T4 construct: purchased Millipore (Upstate) KinaseProfiler
# Experimental: as §1
# CDK7/cyclinH/MAT1(h) = molecular target: T5, CDK7/cyclinH/MAT1(h) (Homo sapiens, UniProt P50613)
# T5 construct: purchased Millipore (Upstate) KinaseProfiler
# Experimental: as §1
# CDK9/cyclin T1(h) = molecular target: T6, CDK9/cyclin T1(h) (Homo sapiens, UniProt P50750)
# T6 construct: purchased Millipore (Upstate) KinaseProfiler
# Experimental: as §1
# CHK1(h) = molecular target: T7, CHK1(h) (Homo sapiens, UniProt O14757)
# T7 construct: purchased Millipore (Upstate) KinaseProfiler
# Experimental: as §1
# CK1γ1(h) = molecular target: T8, CK1γ1(h) (Homo sapiens, UniProt Q9HCP0)
# T8 construct: purchased Millipore (Upstate) KinaseProfiler
# T8 sequence (Q9HCP0 whole entry): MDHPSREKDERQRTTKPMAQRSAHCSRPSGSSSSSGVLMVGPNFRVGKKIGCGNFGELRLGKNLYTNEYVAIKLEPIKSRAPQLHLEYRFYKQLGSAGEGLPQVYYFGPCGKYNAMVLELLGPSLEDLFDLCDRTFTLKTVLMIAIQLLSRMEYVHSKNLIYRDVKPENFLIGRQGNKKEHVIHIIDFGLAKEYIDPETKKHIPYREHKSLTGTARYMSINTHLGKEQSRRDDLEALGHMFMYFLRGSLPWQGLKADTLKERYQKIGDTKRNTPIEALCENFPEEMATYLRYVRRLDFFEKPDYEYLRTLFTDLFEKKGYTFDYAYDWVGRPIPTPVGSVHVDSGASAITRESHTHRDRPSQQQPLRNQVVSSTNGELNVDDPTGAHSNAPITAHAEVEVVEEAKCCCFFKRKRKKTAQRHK
# Experimental: as §1
# CK2α2(h) = molecular target: T9, CK2α2(h) (Homo sapiens, UniProt P19784)
# T9 construct: purchased Millipore (Upstate) KinaseProfiler
# Experimental: as §1
# CaMKI(h) = molecular target: T10, CaMKI(h) (Homo sapiens, UniProt Q14012)
# T10 construct: purchased Millipore (Upstate) KinaseProfiler
# Experimental: as §1
# DRAK1(h) = molecular target: T11, DRAK1(h) (Homo sapiens, UniProt Q9UEE5)
# T11 construct: purchased Millipore (Upstate) KinaseProfiler
# Experimental: as §1
# DYRK2(h) = molecular target: T12, DYRK2(h) (Homo sapiens, UniProt Q92630)
# T12 construct: purchased Millipore (Upstate) KinaseProfiler
# Experimental: as §1
# GRK5(h) = molecular target: T13, GRK5(h) (Homo sapiens, UniProt P34947)
# T13 construct: purchased Millipore (Upstate) KinaseProfiler
# T13 sequence (P34947 whole entry): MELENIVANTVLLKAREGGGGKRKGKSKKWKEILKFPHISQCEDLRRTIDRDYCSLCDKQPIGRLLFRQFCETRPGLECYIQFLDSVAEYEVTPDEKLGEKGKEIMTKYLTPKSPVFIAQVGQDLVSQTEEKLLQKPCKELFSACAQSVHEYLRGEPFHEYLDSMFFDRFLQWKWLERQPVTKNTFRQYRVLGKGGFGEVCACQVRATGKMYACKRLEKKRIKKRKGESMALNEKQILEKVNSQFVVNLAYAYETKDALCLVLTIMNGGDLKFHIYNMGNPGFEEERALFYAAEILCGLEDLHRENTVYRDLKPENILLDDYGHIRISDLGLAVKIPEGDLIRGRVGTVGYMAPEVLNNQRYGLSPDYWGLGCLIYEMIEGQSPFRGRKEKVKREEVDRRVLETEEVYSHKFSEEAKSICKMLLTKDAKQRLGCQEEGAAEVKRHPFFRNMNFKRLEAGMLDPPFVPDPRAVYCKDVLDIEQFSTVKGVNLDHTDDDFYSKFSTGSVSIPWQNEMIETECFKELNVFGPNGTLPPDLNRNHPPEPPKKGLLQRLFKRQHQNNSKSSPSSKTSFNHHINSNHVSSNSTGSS
# Experimental: as §1
# GSK3β(h) = molecular target: T14, GSK3β(h) (Homo sapiens, UniProt P49841)
# T14 construct: purchased Millipore (Upstate) KinaseProfiler
# Experimental: as §1
# IKKα(h) = molecular target: T15, IKKα(h) (Homo sapiens, UniProt O15111)
# T15 construct: purchased Millipore (Upstate) KinaseProfiler
# Experimental: as §1
# IRAK4(h) = molecular target: T16, IRAK4(h) (Homo sapiens, UniProt Q9NWZ3)
# T16 construct: purchased Millipore (Upstate) KinaseProfiler
# Experimental: as §1
# JNK3(h) = molecular target: T17, JNK3(h) (Homo sapiens, UniProt P53779)
# T17 construct: purchased Millipore (Upstate) KinaseProfiler
# Experimental: as §1
# KDR(h) = molecular target: T18, KDR(h) (Homo sapiens, UniProt P35968)
# T18 construct: purchased Millipore (Upstate) KinaseProfiler
# Experimental: as §1
# LOK(h) = molecular target: T19, LOK(h) (Homo sapiens, UniProt O94804)
# T19 construct: purchased Millipore (Upstate) KinaseProfiler
# Experimental: as §1
# MAPK2(h) = molecular target: T20, MAPK2(h) (Homo sapiens, UniProt P28482)
# T20 construct: purchased Millipore (Upstate) KinaseProfiler
# Experimental: as §1
# MAPKAP-K2(h) = molecular target: T21, MAPKAP-K2(h) (Homo sapiens, UniProt P49137)
# T21 construct: purchased Millipore (Upstate) KinaseProfiler
# Experimental: as §1
# MEK1(h) = molecular target: T22, MEK1(h) (Homo sapiens, UniProt Q02750)
# T22 construct: purchased Millipore (Upstate) KinaseProfiler
# T22 sequence (Q02750 whole entry): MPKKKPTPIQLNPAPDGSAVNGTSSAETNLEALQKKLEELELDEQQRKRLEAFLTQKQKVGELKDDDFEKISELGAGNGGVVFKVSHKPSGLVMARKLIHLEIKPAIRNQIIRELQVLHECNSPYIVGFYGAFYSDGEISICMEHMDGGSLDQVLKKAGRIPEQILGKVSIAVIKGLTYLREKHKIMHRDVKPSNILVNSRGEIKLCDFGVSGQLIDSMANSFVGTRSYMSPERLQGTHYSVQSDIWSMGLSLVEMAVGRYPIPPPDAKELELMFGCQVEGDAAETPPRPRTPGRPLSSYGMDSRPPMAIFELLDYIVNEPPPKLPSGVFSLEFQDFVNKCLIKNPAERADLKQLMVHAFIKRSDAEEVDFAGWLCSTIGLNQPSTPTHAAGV
# Experimental: as §1
# MKK7β(h) = molecular target: T23, MKK7β(h) (Homo sapiens, UniProt O14733)
# T23 construct: purchased Millipore (Upstate) KinaseProfiler
# Experimental: as §1
# MLK1(h) = molecular target: T24, MLK1(h) (Homo sapiens, UniProt P80192)
# T24 construct: purchased Millipore (Upstate) KinaseProfiler
# Experimental: as §1
# MSK2(h) = molecular target: T25, MSK2(h) (Homo sapiens, UniProt O75676)
# T25 construct: purchased Millipore (Upstate) KinaseProfiler
# Experimental: as §1
# Mnk2(h) = molecular target: T26, Mnk2(h) (Homo sapiens, UniProt Q9HBH9)
# T26 construct: purchased Millipore (Upstate) KinaseProfiler
# T26 sequence (Q9HBH9 whole entry): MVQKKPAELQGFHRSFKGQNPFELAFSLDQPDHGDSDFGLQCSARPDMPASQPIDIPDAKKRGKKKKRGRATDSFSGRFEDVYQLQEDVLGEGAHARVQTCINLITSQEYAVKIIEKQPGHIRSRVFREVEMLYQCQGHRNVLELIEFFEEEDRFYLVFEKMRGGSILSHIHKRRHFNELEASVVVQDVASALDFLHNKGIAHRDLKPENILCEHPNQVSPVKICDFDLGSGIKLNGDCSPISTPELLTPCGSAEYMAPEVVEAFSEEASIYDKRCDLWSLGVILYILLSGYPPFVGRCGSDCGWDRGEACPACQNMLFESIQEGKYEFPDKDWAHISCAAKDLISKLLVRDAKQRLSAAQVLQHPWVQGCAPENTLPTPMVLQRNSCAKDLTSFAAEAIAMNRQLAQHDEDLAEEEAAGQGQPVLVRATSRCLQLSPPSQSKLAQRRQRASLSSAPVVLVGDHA
# Experimental: as §1
# PAK2(h) = molecular target: T27, PAK2(h) (Homo sapiens, UniProt Q13177)
# T27 construct: purchased Millipore (Upstate) KinaseProfiler
# Experimental: as §1
# PDGFRβ(h) = molecular target: T28, PDGFRβ(h) (Homo sapiens, UniProt P09619)
# T28 construct: purchased Millipore (Upstate) KinaseProfiler
# Experimental: as §1
# PKA(h) = molecular target: T29, PKA(h) (Homo sapiens, UniProt P17612)
# T29 construct: purchased Millipore (Upstate) KinaseProfiler
# Experimental: as §1
# PKBα(h) = molecular target: T30, PKBα(h) (Homo sapiens, UniProt P31749)
# T30 construct: purchased Millipore (Upstate) KinaseProfiler
# Experimental: as §1
# PKCα(h) = molecular target: T31, PKCα(h) (Homo sapiens, UniProt P17252)
# T31 construct: purchased Millipore (Upstate) KinaseProfiler
# Experimental: as §1
# PKCθ(h) = molecular target: T32, PKCθ(h) (Homo sapiens, UniProt Q04759)
# T32 construct: purchased Millipore (Upstate) KinaseProfiler
# T32 sequence (Q04759 whole entry): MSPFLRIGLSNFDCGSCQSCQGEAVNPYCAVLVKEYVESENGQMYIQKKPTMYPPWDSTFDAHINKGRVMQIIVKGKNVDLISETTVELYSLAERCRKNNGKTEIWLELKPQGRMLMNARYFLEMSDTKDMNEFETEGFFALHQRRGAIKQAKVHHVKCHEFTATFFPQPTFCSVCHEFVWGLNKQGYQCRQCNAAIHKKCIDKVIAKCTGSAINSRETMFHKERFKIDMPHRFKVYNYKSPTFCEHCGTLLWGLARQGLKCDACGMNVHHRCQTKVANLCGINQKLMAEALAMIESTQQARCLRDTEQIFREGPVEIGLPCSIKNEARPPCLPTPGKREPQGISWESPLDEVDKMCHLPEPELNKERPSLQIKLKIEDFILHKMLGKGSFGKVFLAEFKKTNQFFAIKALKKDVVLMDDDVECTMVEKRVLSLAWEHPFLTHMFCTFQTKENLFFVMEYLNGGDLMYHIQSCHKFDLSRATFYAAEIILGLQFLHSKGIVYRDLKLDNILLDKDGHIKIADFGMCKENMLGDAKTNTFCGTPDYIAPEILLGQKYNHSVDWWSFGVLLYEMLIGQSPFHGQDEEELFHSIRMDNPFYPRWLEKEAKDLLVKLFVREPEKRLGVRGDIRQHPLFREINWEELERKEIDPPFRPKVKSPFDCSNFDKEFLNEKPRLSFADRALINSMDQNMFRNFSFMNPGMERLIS
# Experimental: as §1
# PRAK(h) = molecular target: T33, PRAK(h) (Homo sapiens, UniProt Q8IW41)
# T33 construct: purchased Millipore (Upstate) KinaseProfiler
# Experimental: as §1
# Pim-1(h) = molecular target: T34, Pim-1(h) (Homo sapiens, UniProt P11309)
# T34 construct: purchased Millipore (Upstate) KinaseProfiler
# Experimental: as §1
# ROCK-I(h) = molecular target: T35, ROCK-I(h) (Homo sapiens, UniProt Q13464)
# T35 construct: purchased Millipore (Upstate) KinaseProfiler
# T35 sequence (Q13464 whole entry): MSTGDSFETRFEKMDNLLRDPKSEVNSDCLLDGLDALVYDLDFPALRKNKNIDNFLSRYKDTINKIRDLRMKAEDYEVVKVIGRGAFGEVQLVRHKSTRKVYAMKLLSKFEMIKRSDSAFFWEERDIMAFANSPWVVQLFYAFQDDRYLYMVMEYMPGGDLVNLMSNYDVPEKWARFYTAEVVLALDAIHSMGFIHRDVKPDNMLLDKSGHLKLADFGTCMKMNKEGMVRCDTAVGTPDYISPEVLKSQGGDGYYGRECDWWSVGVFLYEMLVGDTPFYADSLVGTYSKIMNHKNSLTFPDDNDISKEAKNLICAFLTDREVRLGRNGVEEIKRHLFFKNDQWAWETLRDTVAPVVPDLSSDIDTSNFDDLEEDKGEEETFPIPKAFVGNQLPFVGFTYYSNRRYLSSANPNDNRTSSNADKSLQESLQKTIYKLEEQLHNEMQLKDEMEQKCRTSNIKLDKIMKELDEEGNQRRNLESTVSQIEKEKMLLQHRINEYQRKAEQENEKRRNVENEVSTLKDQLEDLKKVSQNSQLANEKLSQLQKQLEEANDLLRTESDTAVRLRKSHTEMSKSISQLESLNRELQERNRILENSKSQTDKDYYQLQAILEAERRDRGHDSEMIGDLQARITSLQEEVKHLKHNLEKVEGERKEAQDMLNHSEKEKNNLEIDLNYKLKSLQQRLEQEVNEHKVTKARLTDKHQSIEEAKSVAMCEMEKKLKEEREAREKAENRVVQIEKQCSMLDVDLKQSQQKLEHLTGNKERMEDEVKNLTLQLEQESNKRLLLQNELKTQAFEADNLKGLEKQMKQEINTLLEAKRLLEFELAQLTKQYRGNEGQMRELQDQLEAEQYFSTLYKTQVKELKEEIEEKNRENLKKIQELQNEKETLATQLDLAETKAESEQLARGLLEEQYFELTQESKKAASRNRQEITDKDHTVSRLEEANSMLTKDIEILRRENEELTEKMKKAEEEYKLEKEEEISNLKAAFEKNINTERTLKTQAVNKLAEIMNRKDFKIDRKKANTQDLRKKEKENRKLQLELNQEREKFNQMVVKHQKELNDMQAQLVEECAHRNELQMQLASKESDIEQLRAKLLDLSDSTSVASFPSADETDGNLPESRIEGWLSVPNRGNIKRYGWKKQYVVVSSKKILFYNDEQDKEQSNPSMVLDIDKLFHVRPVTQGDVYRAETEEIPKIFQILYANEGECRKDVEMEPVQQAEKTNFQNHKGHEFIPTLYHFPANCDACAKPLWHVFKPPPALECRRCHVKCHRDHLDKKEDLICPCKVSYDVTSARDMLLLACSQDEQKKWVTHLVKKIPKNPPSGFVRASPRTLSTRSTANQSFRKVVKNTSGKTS
# Experimental: as §1
# Rse(h) = molecular target: T36, Rse(h) (Homo sapiens, UniProt Q06418)
# T36 construct: purchased Millipore (Upstate) KinaseProfiler
# Experimental: as §1
# Rsk1(h) = molecular target: T37, Rsk1(h) (Homo sapiens, UniProt Q15418)
# T37 construct: purchased Millipore (Upstate) KinaseProfiler
# Experimental: as §1
# SAPK2a(h) = molecular target: T38, SAPK2a(h) (Homo sapiens, UniProt Q16539)
# T38 construct: purchased Millipore (Upstate) KinaseProfiler
# T38 sequence (Q16539 whole entry): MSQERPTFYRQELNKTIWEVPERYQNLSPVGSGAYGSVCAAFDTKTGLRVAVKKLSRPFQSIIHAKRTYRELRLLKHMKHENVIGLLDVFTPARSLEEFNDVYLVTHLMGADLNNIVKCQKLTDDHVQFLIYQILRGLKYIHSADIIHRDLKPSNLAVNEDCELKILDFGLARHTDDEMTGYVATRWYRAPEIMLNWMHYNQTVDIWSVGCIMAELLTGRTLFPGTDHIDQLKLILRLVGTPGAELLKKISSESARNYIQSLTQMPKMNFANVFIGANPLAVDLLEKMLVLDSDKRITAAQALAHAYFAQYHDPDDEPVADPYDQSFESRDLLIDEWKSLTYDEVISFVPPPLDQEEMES
# Experimental: as §1
# SRPK1(h) = molecular target: T39, SRPK1(h) (Homo sapiens, UniProt Q96SB4)
# T39 construct: purchased Millipore (Upstate) KinaseProfiler
# T39 sequence (Q96SB4 whole entry): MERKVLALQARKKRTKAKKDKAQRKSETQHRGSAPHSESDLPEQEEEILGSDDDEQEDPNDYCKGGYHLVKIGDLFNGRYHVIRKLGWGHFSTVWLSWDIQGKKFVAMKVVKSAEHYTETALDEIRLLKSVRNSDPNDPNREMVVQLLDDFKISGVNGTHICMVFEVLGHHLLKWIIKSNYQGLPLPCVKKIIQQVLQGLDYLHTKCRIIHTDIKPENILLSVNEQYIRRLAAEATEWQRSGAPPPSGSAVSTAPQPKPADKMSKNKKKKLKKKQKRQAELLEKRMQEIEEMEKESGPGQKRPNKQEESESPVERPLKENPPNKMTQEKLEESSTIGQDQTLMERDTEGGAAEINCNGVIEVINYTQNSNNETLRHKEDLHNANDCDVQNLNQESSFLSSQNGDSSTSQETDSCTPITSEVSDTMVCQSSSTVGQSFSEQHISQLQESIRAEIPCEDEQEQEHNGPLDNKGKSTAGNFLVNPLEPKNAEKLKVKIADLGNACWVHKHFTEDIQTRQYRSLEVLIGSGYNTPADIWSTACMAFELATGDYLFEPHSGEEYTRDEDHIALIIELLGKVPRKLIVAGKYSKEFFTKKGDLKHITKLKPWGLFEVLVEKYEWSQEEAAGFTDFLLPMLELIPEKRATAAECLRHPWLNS
# Experimental: as §1
# TAK1(h) = molecular target: T40, TAK1(h) (Homo sapiens, UniProt O43318)
# T40 construct: purchased Millipore (Upstate) KinaseProfiler
# Experimental: as §1
# c-RAF(h) = molecular target: T41, c-RAF(h) (Homo sapiens, UniProt P04049)
# T41 construct: purchased Millipore (Upstate) KinaseProfiler
# Experimental: as §1
# cKit(h) = molecular target: T42, cKit(h) (Homo sapiens, UniProt P10721)
# T42 construct: purchased Millipore (Upstate) KinaseProfiler
# Experimental: as §1
structure (smiles),measurement,setting,value
"Cc1cccn2cc(-c3ccc(NC(=O)c4ccccc4Br)cc3)nc12 [MS-0022, 2-bromo-N-(4-(8-methylimidazo[1,2-a]pyridin-2-yl)phenyl)benzamide]",activity at 10 µM,ASK1(h),91%
same,activity at 10 µM,Abl(h),96%
same,activity at 10 µM,CDK1/cyclinB(h),110%
same,activity at 10 µM,CDK2/cyclinA(h),98%
same,activity at 10 µM,CDK7/cyclinH/MAT1(h),103%
same,activity at 10 µM,CDK9/cyclin T1(h),98%
same,activity at 10 µM,CHK1(h),84%
same,activity at 10 µM,CK1γ1(h),93%
same,activity at 10 µM,CK2α2(h),109%
same,activity at 10 µM,CaMKI(h),106%
same,activity at 10 µM,DRAK1(h),97%
same,activity at 10 µM,DYRK2(h),97%
same,activity at 10 µM,GRK5(h),119%
same,activity at 10 µM,GSK3β(h),88%
same,activity at 10 µM,IKKα(h),103%
same,activity at 10 µM,IRAK4(h),95%
same,activity at 10 µM,JNK3(h),71%
same,activity at 10 µM,KDR(h),103%
same,activity at 10 µM,LOK(h),93%
same,activity at 10 µM,MAPK2(h),101%
same,activity at 10 µM,MAPKAP-K2(h),92%
same,activity at 10 µM,MEK1(h),73%
same,activity at 10 µM,MKK7β(h),109%
same,activity at 10 µM,MLK1(h),103%
same,activity at 10 µM,MSK2(h),92%
same,activity at 10 µM,Mnk2(h),90%
same,activity at 10 µM,PAK2(h),93%
same,activity at 10 µM,PDGFRβ(h),108%
same,activity at 10 µM,PKA(h),100%
same,activity at 10 µM,PKBα(h),107%
same,activity at 10 µM,PKCα(h),106%
same,activity at 10 µM,PKCθ(h),103%
same,activity at 10 µM,PRAK(h),71%
same,activity at 10 µM,Pim-1(h),103%
same,activity at 10 µM,ROCK-I(h),103%
same,activity at 10 µM,Rse(h),107%
same,activity at 10 µM,Rsk1(h),91%
same,activity at 10 µM,SAPK2a(h),102%
same,activity at 10 µM,SRPK1(h),102%
same,activity at 10 µM,TAK1(h),98%
same,activity at 10 µM,c-RAF(h),106%
same,activity at 10 µM,cKit(h),109%
